# Laboratory results reported in ChEMBL document CHEMBL1201862, “PubChem BioAssay data set” (2004).
#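 Values below derive from 48-hour exposures of cells grown in 96-well plates, with endpoints linearly interpolated between the two concentrations bracketing the appropriate inhibition level. GI50 is the concentration that inhibits growth by half.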 Calls of active or inactive are those of the source. Rule as the data show it: active = GI50 up to about 1.1 µM and inactive = higher.
# Tests used:
# Assay in all cases: NCI anticancer screen, dose series, 48 h
# [1] = system: NCI-H226
# [2] = system: HOP-18
# [3] = system: HCC 2998
# [4] = system: M14
# [5] = system: CAKI-1
# [6] = system: SK-MEL-2
# [7] = system: CCRF-CEM
# [8] = system: SF-295
# [9] = system: KM-20L2
# [10] = system: OVCAR-3
# [11] = system: SN12C
# [12] = system: DLD-1
# [13] = system: SK-OV-3
# [14] = system: A498
# [15] = system: 786-0
# [16] = system: HOP-62
# [17] = system: SW-620
# [18] = system: SNB-75
# [19] = system: SR
# [20] = system: COLO 205
# [21] = system: K562
# [22] = system: DMS-273
# [23] = system: Malme-3M
# [24] = system: HOP-92
# [25] = system: RXF 393
# [26] = system: MOLT-4
# [27] = system: NCI-H522
# [28] = system: NCI-H460
# [29] = system: U-251
# [30] = system: UACC-62
# [31] = system: IGROV-1
# [32] = system: UACC-257
# [33] = system: SF-539
# [34] = system: SK-MEL-5
# [35] = system: NCI-H23
# [36] = system: RPMI-8226
# [37] = system: SF-268
# [38] = system: SK-MEL-28
# [39] = system: LOX IMVI
# [40] = system: A549
# [41] = system: HL-60
# [42] = system: OVCAR-5
# [43] = system: HT-29
# [44] = system: ACHN
# [45] = system: OVCAR-4
# [46] = system: DMS-114
# [47] = system: UO-31
# [48] = system: SNB-19
# [49] = system: LXFL 529
# [50] = system: OVCAR-8
# [51] = system: EKVX
# [52] = system: HCT-116
# [53] = system: TK-10
# [54] = system: HCT-15
# [55] = system: XF498
# [56] = system: SNB-78
# [57] = system: KM12
# [58] = system: M19-MEL
structure (smiles),measurement,setting,value
CC/C=C\C/C=C\C/C=C\CCCCCCCC(=O)OCC(O)CO (centres undefined),GI50,[1],> 100 µM (inactive)
same,GI50,[2],52.2 µM (inactive)
same,GI50,[3],> 100 µM (inactive)
same,GI50,[4],> 61.7 µM (inactive)
same,GI50,[5],38 µM (inactive)
same,GI50,[6],97.9 µM (inactive)
same,GI50,[7],> 47.8 µM (inactive)
same,GI50,[8],> 83.2 µM (inactive)
same,GI50,[9],> 100 µM (inactive)
same,GI50,[10],40.9 µM (inactive)
same,GI50,[11],> 95.1 µM (inactive)
same,GI50,[12],> 100 µM (inactive)
same,GI50,[13],> 100 µM (inactive)
same,GI50,[14],> 100 µM (inactive)
same,GI50,[15],> 63.1 µM (inactive)
same,GI50,[16],> 100 µM (inactive)
same,GI50,[17],58.2 µM (inactive)
same,GI50,[18],> 100 µM (inactive)
same,GI50,[19],1 µM (active)
same,GI50,[20],70.5 µM (inactive)
same,GI50,[21],2.46 µM (inactive)
same,GI50,[22],> 100 µM (inactive)
same,GI50,[23],> 100 µM (inactive)
same,GI50,[24],> 68.1 µM (inactive)
same,GI50,[25],> 100 µM (inactive)
same,GI50,[26],> 46.2 µM (inactive)
same,GI50,[27],22 µM (inactive)
same,GI50,[28],> 69.3 µM (inactive)
same,GI50,[29],> 57.8 µM (inactive)
same,GI50,[30],> 100 µM (inactive)
same,GI50,[31],> 92.3 µM (inactive)
same,GI50,[32],> 86.1 µM (inactive)
same,GI50,[33],> 100 µM (inactive)
same,GI50,[34],> 59.2 µM (inactive)
same,GI50,[35],> 74.5 µM (inactive)
same,GI50,[36],43.4 µM (inactive)
same,GI50,[37],> 90.8 µM (inactive)
same,GI50,[38],> 100 µM (inactive)
same,GI50,[39],39.9 µM (inactive)
same,GI50,[40],> 84.9 µM (inactive)
same,GI50,[41],20.7 µM (inactive)
same,GI50,[42],> 100 µM (inactive)
same,GI50,[43],> 68.5 µM (inactive)
same,GI50,[44],> 58.5 µM (inactive)
same,GI50,[45],> 84.3 µM (inactive)
same,GI50,[46],44.4 µM (inactive)
same,GI50,[47],16.4 µM (inactive)
same,GI50,[48],> 100 µM (inactive)
same,GI50,[49],> 56.9 µM (inactive)
same,GI50,[50],> 67.8 µM (inactive)
same,GI50,[51],> 88.7 µM (inactive)
same,GI50,[52],> 55.6 µM (inactive)
same,GI50,[53],> 100 µM (inactive)
same,GI50,[54],> 63.4 µM
same,GI50,[55],> 100 µM (inactive)
same,GI50,[56],> 58.7 µM (inactive)
same,GI50,[57],> 56.9 µM (inactive)
CN1CCN=C1c1nnn(-c2ccc([N+](=O)[O-])cc2)c1-c1ccccc1,GI50,[1],> 100 µM (inactive)
same,GI50,[2],> 100 µM (inactive)
same,GI50,[3],> 100 µM (inactive)
same,GI50,[4],> 100 µM (inactive)
same,GI50,[5],> 100 µM (inactive)
same,GI50,[6],> 100 µM (inactive)
same,GI50,[7],24.7 µM (inactive)
same,GI50,[8],> 100 µM (inactive)
same,GI50,[9],> 100 µM (inactive)
same,GI50,[10],> 100 µM (inactive)
same,GI50,[11],> 100 µM (inactive)
same,GI50,[12],67 µM (inactive)
same,GI50,[13],> 100 µM (inactive)
same,GI50,[14],> 100 µM (inactive)
same,GI50,[15],> 100 µM (inactive)
same,GI50,[16],> 100 µM (inactive)
same,GI50,[17],26.5 µM (inactive)
same,GI50,[18],> 100 µM (inactive)
same,GI50,[19],> 100 µM (inactive)
same,GI50,[20],> 100 µM (inactive)
same,GI50,[21],33.7 µM (inactive)
same,GI50,[22],> 100 µM (inactive)
same,GI50,[23],> 100 µM (inactive)
same,GI50,[24],13.6 µM (inactive)
same,GI50,[25],> 100 µM (inactive)
same,GI50,[26],> 100 µM (inactive)
same,GI50,[27],> 100 µM (inactive)
same,GI50,[28],> 100 µM (inactive)
same,GI50,[29],94.6 µM (inactive)
same,GI50,[30],> 100 µM (inactive)
same,GI50,[31],> 100 µM (inactive)
same,GI50,[32],> 100 µM (inactive)
same,GI50,[33],> 100 µM (inactive)
same,GI50,[34],> 100 µM (inactive)
same,GI50,[35],> 100 µM (inactive)
same,GI50,[58],> 100 µM (inactive)
same,GI50,[37],> 100 µM (inactive)
same,GI50,[38],> 100 µM (inactive)
same,GI50,[39],94.6 µM (inactive)
same,GI50,[40],> 100 µM (inactive)
same,GI50,[41],18.8 µM (inactive)
same,GI50,[42],> 100 µM (inactive)
same,GI50,[43],64.9 µM (inactive)
same,GI50,[44],> 100 µM (inactive)
same,GI50,[45],> 100 µM (inactive)
same,GI50,[46],89.3 µM (inactive)
same,GI50,[47],75.5 µM (inactive)
same,GI50,[48],> 100 µM (inactive)
same,GI50,[49],> 100 µM (inactive)
same,GI50,[50],> 100 µM (inactive)
same,GI50,[51],> 100 µM (inactive)
same,GI50,[52],> 100 µM (inactive)
same,GI50,[53],> 100 µM (inactive)
same,GI50,[54],> 100 µM
same,GI50,[55],89.3 µM (inactive)
same,GI50,[56],> 100 µM (inactive)
same,GI50,[57],> 100 µM (inactive)
